According to PubChem BioAssay AID192 (DTP/NCI, 2004):
“And” between values parts separate entries of the source, which are not always exact repeats. Identical values can stand only once. Toxic doses and inconclusive results are not listed. Rule for the calls: active = survival T/C of 150% or more; inactive = T/C below 125% in these data.

Tested on: BDF1 mice, B16 melanoma ip, median survival T/C
Test: NCI In Vivo Anticancer Drug Screen. Data for tumor model B16 Melanoma (intraperitoneal) in B6D2F1 (BDF1) mice
Conditions: endpoint: median survival time, higher = longer survival
How it was run: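 The ratio T/C compares compound-treated mice with vehicle-treated controls, using survival or tumor size as the endpoint in a transplantable tumor model.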

[1] = dose: 12.5 mg/kg/injection, schedule: Q01DX009 (ip), vehicle: Klucel (hydroxypropylcellulose) (HPC)
[2] = dose: 50.0 mg/kg/injection, schedule: Q01DX009 (ip), vehicle: saline

Measured: T/C

Nc1ccccc1.[C-]#[O+].[C-]#[O+].[C-]#[O+].[C-]#[O+].[C-]#[O+].[Cr]
inactive: dose: 2.5 mg/kg/injection, schedule: Q01DX009 (ip), vehicle: saline 95 % of control | dose: 5.0 mg/kg/injection, schedule: Q01DX009 (ip), vehicle: saline 114 % of control | dose: 10.0 mg/kg/injection, schedule: Q01DX009 (ip), vehicle: saline 108 % of control

CCCCCCCCCCCCCCCC(=O)N(CCCN)C(C)CCCN(CC)CC (stereo not drawn)
inactive: [1] 105 % of control | dose: 25.0 mg/kg/injection, schedule: Q01DX009 (ip), vehicle: Klucel (hydroxypropylcellulose) (HPC) 100 % of control | dose: 50.0 mg/kg/injection, schedule: Q01DX009 (ip), vehicle: Klucel (hydroxypropylcellulose) (HPC) 107 % of control | dose: 100.0 mg/kg/injection, schedule: Q01DX009 (ip), vehicle: Klucel (hydroxypropylcellulose) (HPC) 101 % of control

CC1CN1P(=O)(OCCC#N)N1CC1C (stereo not drawn)
inactive: [2] 121 % of control | dose: 100.0 mg/kg/injection, schedule: Q01DX009 (ip), vehicle: saline 115 % of control | dose: 200.0 mg/kg/injection, schedule: Q01DX009 (ip), vehicle: saline 120 % of control

CCC1CC(O)c2c(O)c3c(c(O)c2C1O)C(=O)c1cccc(O)c1C3=O (stereo not drawn) (tested in a mixture with another compound)
inactive: dose: 0.01 mg/kg/injection, schedule: Q01DX009 (ip), vehicle: saline 95 % of control | dose: 0.03 mg/kg/injection, schedule: Q01DX009 (ip), vehicle: saline 86 % of control | dose: 0.06 mg/kg/injection, schedule: Q04DX003 (ip), vehicle: saline 102 % of control | dose: 0.12 mg/kg/injection, schedule: Q04DX003 (ip), vehicle: saline 109 % of control | dose: 15.0 micrograms/kg/injection, schedule: Q01DX009 (ip), vehicle: saline 119 % of control

c1ccc2c(c1)[As]=c1ccccc1=[As]2 (stereo not drawn)
inactive: dose: 0.75 mg/kg/injection, schedule: Q01DX009 (ip), vehicle: saline with Tween-80 104 % of control | dose: 1.5 mg/kg/injection, schedule: Q01DX009 (ip), vehicle: saline with Tween-80 106 % of control | dose: 3.0 mg/kg/injection, schedule: Q01DX009 (ip), vehicle: saline with Tween-80 100 % of control | dose: 6.0 mg/kg/injection, schedule: Q01DX009 (ip), vehicle: saline with Tween-80 110 % of control

CCC(CC)c1ccccn1
inactive: dose: 100.0 mg/kg/injection, schedule: Q01DX009 (ip), vehicle: carboxymethylcellulose (CMC) 101 % of control | dose: 200.0 mg/kg/injection, schedule: Q01DX009 (ip), vehicle: carboxymethylcellulose (CMC) 95 % of control

c1cc2cc3c(cc2cc1CC1=NCCc2cc4c(cc21)OCO4)OCO3
inactive: dose: 150.0 mg/kg/injection, schedule: Q01DX009 (ip), vehicle: other 102 % of control

O=C1c2ccccc2C(=O)N1CCC[P+](c1ccccc1)(c1ccccc1)c1ccccc1
inactive: dose: 1.56 mg/kg/injection, schedule: Q01DX009 (ip), vehicle: Klucel (hydroxypropylcellulose) (HPC) 100 % of control | dose: 3.12 mg/kg/injection, schedule: Q01DX009 (ip), vehicle: Klucel (hydroxypropylcellulose) (HPC) 102 % of control | dose: 6.25 mg/kg/injection, schedule: Q01DX009 (ip), vehicle: Klucel (hydroxypropylcellulose) (HPC) 96 % of control | [1] 100 % of control

CN1CCC=C(C(=O)N2c3ccccc3Sc3ccccc32)C1
inactive: dose: 25.0 mg/kg/injection, schedule: Q01DX009 (ip), vehicle: saline 102 % of control | [2] 96 % of control

O=C(Nc1ccc2ccccc2c1)c1ccc(Cl)cc1Cl
inactive: dose: 100.0 mg/kg/injection, schedule: Q04DX003 (ip), vehicle: saline with Tween-80 88 % of control | dose: 200.0 mg/kg/injection, schedule: Q04DX003 (ip), vehicle: saline with Tween-80 91 % of control | dose: 400.0 mg/kg/injection, schedule: Q04DX003 (ip), vehicle: saline with Tween-80 94 % of control

COC1C(OC(=O)c2ccc(C)[nH]2)C(O)C(Oc2ccc3c(O)c(NC(=O)c4ccc(O)c(CC=C(C)C)c4)c(=O)oc3c2Cl)OC1(C)C (stereo not drawn)
inactive: dose: 6.25 mg/kg/injection, schedule: Q01DX009 (ip), vehicle: other 101 % of control | dose: 12.5 mg/kg/injection, schedule: Q01DX009 (ip), vehicle: other 97 % of control and 124 % of control | dose: 25.0 mg/kg/injection, schedule: Q01DX009 (ip), vehicle: other 90 % of control and 91 % of control | dose: 50.0 mg/kg/injection, schedule: Q01DX009 (ip), vehicle: other 94 % of control

CCC(=O)c1ccc(NC(C)=O)cc1
inactive: dose: 100.0 mg/kg/injection, schedule: Q04DX003 (ip), vehicle: Klucel (hydroxypropylcellulose) (HPC) 102 % of control | dose: 200.0 mg/kg/injection, schedule: Q04DX003 (ip), vehicle: Klucel (hydroxypropylcellulose) (HPC) 96 % of control | dose: 400.0 mg/kg/injection, schedule: Q04DX003 (ip), vehicle: Klucel (hydroxypropylcellulose) (HPC) 98 % of control
